# Measured values as given in patent US11045480B2, “Anti-huLRRC15 antibody drug conjugates and methods for their use” (AbbVie Inc., priority 2015, dated 2021).
# Assays:
# Format in all cases: in vivo, mouse
# [1] = test system: PANC1 (pancreatic) xenograft; test: PANC1 xenograft tumor growth
# Protocol: (§1) In FIG. 20E, PANC1 pancreatic cancer cells (10 million) were implanted subcutaneously into SCID mice, and mice were randomized when the tumors reached ˜125 mm^3 and dosed with biologics at 12 mg/kg intraperitoneally on a Q4D×6 (one dose given every 4 days for a total of 6 doses), while gemcitabine was dosed intraperitoneally at 100 mg/kg Q3D×4) (one dose given every three days for 4 doses total).
# [2] = test system: SCC-15 head and neck cancer xenograft; test: SCC-15 xenograft tumor growth
# [3] = test system: NW231 breast cancer xenograft; test: NW231 xenograft tumor growth; conditions: NW231, SCID mice; biologics 12 mg/kg IP Q4D×6; doxorubicin 1 mg/kg IV days 0, 4, 8, 13, 18 (FIG. 20D)
# Protocol: In FIG. 20D, NW231 breast cancer cells (10 million) were implanted subcutaneously into SCID mice, and mice were randomized when the tumors reached ˜150 mm^3 and dosed with biologics at 12 mg/kg intraperitoneally on a Q4D×6 (one dose given every 4 days for a total of 6 doses), while doxorubicin was dosed intravenously at 1 mg/kg on days 0, 4, 8, 13 and 18.
# [4] = test system: EBC-1 (human squamous NSCLC) xenograft; test: EBC-1 xenograft tumor growth
# Protocol: For the experiments, five million cells (EBC-1) that were grown in vitro were inoculated subcutaneously per mouse into the right flank of female SCID-Beige mice. Tumors were size matched at ˜200 mm^3, and dosed intraperitoneally (IP) Q4D×6 (1 dose given every 4 days for a total of 6 doses) as shown in FIG. 13A. Measurements of the length (L) and width (W) of the tumors were taken via electronic caliper and the volume was calculated according to the following equation: V=L×W^2/2.
# For this experiment, tumors were size matched at ˜200 mm^3, and dosed intraperitoneally (IP) Q7D×2 (1 dose given every 7 days for a total of 2 doses) as shown in FIG. 13C. […]
# 5 million cells were implanted subcutaneously into SCID/Beige mice, and mice were randomized when tumor group mean volumes reached ˜200 mm^3.
# In FIG. 20C, EBC1 cells (5 million) were implanted subcutaneously into SCID/Beige mice and mice were randomized when the tumors reached ˜200 mm^3 and dosed with biologics at 6 mg/kg intraperitoneally on a Q7D×2 (one dose given every 7 days for a total of 2 doses), while erlotinib was dosed orally daily for 10 days at 50 mg/kg, and carboplatin was dosed intraperitoneally Q4D×3 (one dose given every 4 days for a total of 3 doses) at 50 mg/kg.
# In FIG. 21B, EBC-1 squamous NSCLC cells (5 million) were implanted subcutaneously into SCID/Beige mice, and mice were randomized when the tumors reached ˜200 mm^3 and dosed with biologics at 6 mg/kg intraperitoneally on a Q7D×2 (one dose given every 7 days for a total of 2 doses), while gemcitabine was dosed intraperitoneally at 100 mg/kg (Q3D×3) (one dose given every three days for 3 doses total).
# [5] = test system: HPAF-II (human pancreatic) xenograft; test: HPAF-II xenograft tumor growth
# Protocol: For the experiment, 1 million cells (HPAF-II) that were grown in vitro were inoculated subcutaneously per mouse into the right flank of female SCID-Beige mice. Tumors were size matched at ˜200 mm^3, and dosed intraperitoneally (IP) Q4D×6 (1 dose given every 4 days for a total of 6 doses) as shown in FIG. 13B.
# as §1, with “21A, HPAF-II” for “20E, PANC1”, “(1” for “(10”, “˜200” for “˜125”, “6” for “12”, “(Q3D×4)×2” for “Q3D×4)”, “per cycle, 2 cycles with 8 total doses given).” for “total).”
# [6] = test system: NCI-H1650 (NSCLC) xenograft; test: NCI-H1650 xenograft tumor growth
# Protocol: The potency of anti-huLRRC15 ADCs as compared to current standards of care was assessed in xenograft models with NCI-H1650 ([…]), HN5 (head and neck), EBC-1 (squamous NSCLC), NW231 (breast) and PANC1 (pancreatic) cancer cells. […] For FIG. 20A, NCI-H1650 cells (5 million cells) were implanted subcutaneously into SCID/Beige mice and tumors were randomized when they reached ˜200 mm^3 and dosed with biologics at 6 or 12 mg/kg intraperitoneally on a Q4D×6 (one dose given every 4 days for a total of 6 doses), while erlotinib was dosed orally daily for 10 days at 100 mg/kg, and carboplatin was dosed intraperitoneally Q4D×4 (one dose given every 4 days for a total of 4 doses) at 50 mg/kg.
# NCI-H1650 NSCLC cancer cells (5 million) were implanted subcutaneously into SCID/Beige mice, and mice were randomized when the tumors reached ˜200 mm^3 and dosed with biologics at 6 or 12 mg/kg intraperitoneally on a Q4D×6 (one dose given every 4 days for a total of 6 doses), while erlotinib was dosed orally daily at 100 mg/kg for 10 doses.
# NCI-H1650 NSCLC cancer cells (5 million) were implanted subcutaneously into SCID/Beige mice, and mice were randomized when the tumors reached ˜200 mm^3 and dosed on day 0 with isotype or ADC at 0.1, 0.3, or 0.6 mg/kg intraperitoneally.
# NCI-H1650 adeno NSCLC cells (5 million) were implanted subcutaneously into SCID/Beige mice, and mice were randomized when the tumors reached ˜225 mm^3 and dosed with ADC at 0.6 mg/kg or isotype antibody at 12 mg/kg intraperitoneally once on day 0.
# [7] = SCC-15, SCID mice, ADCs 12 mg/kg IP Q7D×6, cetuximab 3 mg/kg IP Q7D×3 (FIG. 22B)
# [8] = SCC-15, ADC 12 mg/kg IP Q7D×6 plus cetuximab 3 mg/kg IP Q7D×3 (FIG. 22B)
# [9] = EBC1, SCID/Beige mice, biologics 6 mg/kg IP Q7D×2, erlotinib 50 mg/kg orally daily ×10, carboplatin 50 mg/kg IP Q4D×3 (FIG. 20C)
# [10] = EBC-1, SCID-Beige mice, 6 mg/kg IP Q4D×6 (FIG. 13A)
# [11] = EBC-1, ADC plus second agent of FIG. 21B (sentence: docetaxel; method and legend: gemcitabine)
# [12] = ADC 6 mg/kg IP Q4D×6 plus gemcitabine 100 mg/kg IP (Q3D×4)×2 (FIG. 21A)
# [13] = SCID mice, biologics 6 mg/kg IP Q4D×6, gemcitabine 100 mg/kg IP (Q3D×4)×2 (FIG. 21A)
# [14] = SCID-Beige mice, 6 mg/kg IP Q4D×6 (FIG. 13B)
# [15] = NCI-H1650, SCID/Beige mice, biologics 6 or 12 mg/kg IP Q4D×6, erlotinib 100 mg/kg orally daily ×10, carboplatin 50 mg/kg IP Q4D×4 (FIG. 20A, 22A)
# [16] = NCI-H1650, ADC 6 or 12 mg/kg IP Q4D×6 plus erlotinib 100 mg/kg orally daily ×10 (FIG. 22A)
substance,measurement,setting,value
"huM25-vcMMAE-E2: huM25 conjugated with maleimidocaproyl val-cit PABA MMAE, preparation enriched in DAR2 by HIC",TGImax,"[1]; PANC1 (3+ huLRRC15 stromal positive, cancer negative) tumor model (FIG. 17B)",94.4%
same,TGImax,"[1]; PANC1, SCID mice, biologics 12 mg/kg IP Q4D×6, gemcitabine 100 mg/kg IP Q3D×4 (FIG. 20E)",94%
same,"TGD, single agent",[2]; [7],44%
same,"TGImax, single agent",[2]; [7],58%
same,"TGD, used adjunctively with cetuximab",[2]; [8],125%
same,"TGImax, used adjunctively with cetuximab",[2]; [8],87%
same,TGImax,[3],89%
same,TGD,[4]; [9],129%
same,TGImax,[4]; [9],92%
same,maximum tumor growth inhibition (TGImax),[4]; [10],97%
same,tumor growth delay (TGD),[4]; [10],305%
same,"TGD, single agent","[4]; EBC-1, SCID/Beige mice, huM25-vcMMAE-E2 at 3 mg/kg (method: biologics 6 mg/kg IP Q7D×2), method: gemcitabine 100 mg/kg IP Q3D×3, result sentence names docetaxel (FIG. 21B)",144%
same,"TGD, used adjunctively",[4]; [11],348%
same,"TGImax, used adjunctively",[4]; [11],98%
same,"TGD, used adjunctively with gemcitabine",[5]; [12],183%
same,"TGImax, used adjunctively with gemcitabine",[5]; [12],85%
same,"TGD, single agent",[5]; [13],57%
same,"TGImax, single agent",[5]; [13],57%
same,TGImax,[5]; [14],76%
same,tumor growth delay,[5]; [14],133%
same,"TGD, single agent",[6]; [15],450%
same,"TGImax, single agent",[6]; [15],92%
same,"TGD, used adjunctively with erlotinib",[6]; [16],> 538%
same,"TGImax, used adjunctively with erlotinib",[6]; [16],92%
